Test results reported in paper PMC7468108 (Communications Biology, 2020).

Key:
hIAPP = target: T1, hIAPP (Homo sapiens, UniProt P10997); test: ThT-binding assay, inhibition of hIAPP aggregation; assay type: biochemical; conditions: molar ratios 5:1, 1:1, 1:5
T1 construct: hIAPP is a 37-amino acid neuroendocrine peptide hormone; purchased Peptide 2.0 (USA)
T1 sequence (P10997 34-70 limits assumed): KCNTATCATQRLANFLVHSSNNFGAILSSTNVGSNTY
Protocol: A similar inhibitory effect by the hybrid molecules was found toward hIAPP aggregation. […] Upon co-incubation of hIAPP with the hybrid molecules, a dose-response inhibition of hIAPP fibril formation was observed (Fig. 2d, e and Supplementary Fig. 3). […] Also, for IAPP, the marginally stronger inhibitory effect of WGalNAc was statistically significant (Supplementary Fig. 2b).
(§1) The resulting thin films were dissolved in PBS (100 mM, pH 7.4) and sonicated for 5 min to get a stock concentration of 50 µM, which immediately diluted to required concentration for an experiment. Stock solutions of ThT (4 mM in PBS) and hybrid molecules (10 mM in PBS) were prepared. All the stock solutions were diluted according to the requirement.
The experiment was performed according to the previous report. […] Kinetics fluorescence data were collected at 37 °C in triplicate using Infinite M200 microplate reader (Tecan, Switzerland), with measurements acquired at 15 min intervals. Excitation and emission wavelengths were set at 440 nm and 485 nm, respectively.

Aβ42 = target: T2, Aβ42 (Homo sapiens, UniProt P05067); test: ThT-binding assay, inhibition of Aβ42 aggregation; assay type: biochemical; conditions: any molar ratio (5:1, 1:1, 1:5)
T2 construct: purchased rPeptide (USA)
Protocol: ThT is known to intercalate within the amyloid fibrils resulting in fluorescence emission proportionate to the amyloid growth.
as §1
The experiment was performed according to the previous report. […] […] Excitation and emission wavelengths were set at 440 nm and 485 nm, respectively.

T2 sequence (P05067 672-713 limits assumed): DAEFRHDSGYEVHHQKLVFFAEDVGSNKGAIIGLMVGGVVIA

| SMILES | inhibition of hIAPP fibril formation (ThT), in words (hIAPP) | inhibition of Aβ42 fibril formation (ThT), in words (Aβ42) |
| --- | --- | --- |
| N[C@@H]1O[C@H](CO)[C@H](O)[C@H](O)[C@H]1O [galactosylamine, 1-amino-1-deoxy-β-D-galactose] | No inhibitory effect | no inhibition effect |
| N[C@@H](Cc1c[nH]c2ccccc12)C(=O)O [tryptophan] | No inhibitory effect | no inhibition effect |
